Series [1] deals with Asexual parasites of P. falciparum strain 3D7. The experiment in a line: In vitro drug activity on asexual parasites (SYBR Green assay). Format: cell-based. To be noted: Plasmodium falciparum, P. falciparum 3D7 asexual stage, 72 h, read-out: Asexual EC50. The method, then:
Cell culture. Asexual parasites of P. falciparum strain 3D7 were cultured as described previously [Trager W, et al., Journal of Parasitology 2005, 91: 484-486]. Stage III-V gametocytes were selected and enriched with 3-day treatment with 50 mM N-acetylglucosamine (NAG) and the following Percoll density gradient centrifugation after gametocyte production [Tanaka T Q, et al., Molecular and Biochemical Parasitology, 2011, 177: 160-163]. Gametocytes of HB3 and Dd2 strains were produced and then set up for assay in a similar process. HepG2 cells (ATCC, cat. no. 77400) were cultured in 175-cm^2 tissue culture flasks with 30 ml growth medium at 37° C. in a 5% CO2 humidified atmosphere. Growth medium was made with Dulbecco's Modified Eagle Medium with 10% fetal bovine serum (FBS). Growth medium was replaced every other day and cells were passed at 75% confluence.
Asexual parasites of P. falciparum strain 3D7 were cultured as described previously (Trager, W. et al., J. Parasitol. 2005, 91(3): 484-486). Drug activity on asexual stage parasites was tested using a SYBR Green assay as described previously (Eastman, R. T. et al., Antimicrob. Agents Chemother. 2013, 57(1): 425-435; Smilkstein, M. et al., Antimicrob. Agents Chemother. 2004, 48(5): 1803-1806). Briefly, parasites were diluted to 0.5% parasitemia in complete culture medium with 2% hematocrit and drugs diluted in DMSO (<0.5%) and were loaded into a 96-well plate (200 μl/well). No drug and RBC alone wells were included as positive and background controls, respectively, and each testing condition was examined in duplicated. After 72 h incubation under the standard culture condition and a freeze-thaw lysis step at −80° C. and room temperature, 100 μl/well of lysis buffer containing SYBR Green I was added to the parasite culture and incubated for 30 min at room temperature. The fluorescence of each well was measured at 520 nm following excitation at 490 nm using a FLUOstar Optima™ microplate reader (BMG Labtech).
Compounds were screened against gametocytes and asexual parasites as described in Examples 1 and 2.

Series [2] is described as follows: Microsomal stability (rat). Format: in vitro ADME. The conditions noted are these: rat microsomes.
The nature of another series: Solubility pH 7.4. It is filed as physicochemical. The conditions noted are these: aqueous buffer.
[3] abbreviates: Table 1, read-out: Microsomal Stability (rat) T1/2.
The mark [4] stands for this setting: Table 3, read-out: Microsomal Stability (rat) T1/2.

Values after ≈ are worked out from the molar mass of the structure shown. Where two headings read alike, the source gives them in different places.

Turning to `Cn1c(=N)n(C2CCCCC2)c2c3cc(-c4ccc(Cl)cc4)ccc3ncc21` [Compound 102, 8-(4-chlorophenyl)-1-cyclohexyl-3-methyl-1,3-dihydro-2H-imidazo[4,5-c]quinolin-2-imine], the EC50 in series [1] (Table 1) amounted to 4780 nM. In addition, the half-life in series [2] (setting [3]) is above 30 min. For the same compound, the solubility in the series “Solubility pH 7.4” (Table 1) worked out at 22.3 µg/mL (≈ 57 µM).
For `Cc1nc(N2CCNCC2)c(C#N)cc1-n1c(=N)n(C)c2cnc3ccc(-c4ccc(Cl)cc4)cc3c21` [Compound 47, 5-(8-(4-chlorophenyl)-2-imino-3-methyl-2,3-dihydro-1H-imidazo[4,5-c]quinolin-1-yl)-6-methyl-2-(piperazin-1-yl)nicotinonitrile], in that order: 69.7 nM, above 30 min and 6 µg/mL (≈ 11.8 µM).
With `CCOc1ccc(C#N)cc1-n1c(=N)n(C)c2cnc3ccc(-c4ccc(Cl)cc4)cc3c21` [Compound 19, 3-(8-(4-chlorophenyl)-2-imino-3-methyl-2,3-dihydro-1H-imidazo[4,5-c]quinolin-1-yl)-4-ethoxybenzonitrile], the EC50 in series [1] (Table 1) is 778 nM. The half-life in series [2] (setting [3]) was above 30 min. In the series “Solubility pH 7.4” (Table 1), this compound registered a solubility of 26 µg/mL (≈ 57.3 µM).
Take `N=c1ccc2cnc3ccc(-c4ccc(Cl)cc4)cc3c2n1-c1cccc(C(F)(F)F)c1`: in series [1] (Table 2), the EC50 stood at 213 nM. Further, in series [2] (Table 2, read-out: Microsomal Stability (rat) T1/2), the half-life was above 30 min. For the same compound, the solubility in the series “Solubility pH 7.4” (Table 2) was determined as 11.5 µg/mL (≈ 25.6 µM).
Take `Cc1ccc(C#N)cc1-n1c(=N)n(C)c2cnc3ccc(-c4ccc(Cl)c(N)c4)cc3c21` [Compound 40, 3-(8-(3-amino-4-chlorophenyl)-2-imino-3-methyl-2,3-dihydro-1H-imidazo[4,5-c]quinolin-1-yl)-4-methylbenzonitrile]: in series [1] (Table 1), the EC50 was found to be 30.8 nM. Also, the half-life in series [2] (setting [3]) was above 30 min. Moreover, the solubility in “Solubility pH 7.4” (Table 1) was above 43 µg/mL.
On to `Cn1c(=N)n(-c2cc(C#N)ccc2F)c2c3cc(-c4ccc(Cl)cc4)ccc3ncc21` [Compound 10, 3-(8-(4-chlorophenyl)-2-imino-3-methyl-2,3-dihydro-1H-imidazo[4,5-c]quinolin-1-yl)-4-fluorobenzonitrile], for which the EC50 in series [1] (Table 1) stood at 24.4 nM. For the same compound, the half-life in series [2] (setting [3]) is above 30 min. In “Solubility pH 7.4” (Table 1), this compound returned a solubility below 1 µg/mL.
As for `Cc1nc(N2CCOCC2)c(C#N)cc1-n1c(=N)n(C)c2cnc3ccc(-c4cccc(F)c4)cc3c21` [Compound 142, 5-(8-(3-fluorophenyl)-2-imino-3-methyl-2,3-dihydro-1H-imidazo[4,5-c]quinolin-1-yl)-6-methyl-2-morpholinonicotinonitrile], the EC50 in series [1] (Table 1) worked out at 225 nM. For the same compound, the half-life in series [2] (setting [3]) is above 30 min. In addition, the solubility in “Solubility pH 7.4” (Table 1) is above 49 µg/mL.
Turning to `Cc1ccc(C#N)cc1-n1/c(=N/S(C)(=O)=O)n(C)c2cnc3ccc(-c4ccc(Cl)cc4)cc3c21` [Compound 20, (E)-N-(8-(4-chlorophenyl)-1-(5-cyano-2-methylphenyl)-3-methyl-1,3-dihydro-2H-imidazo[4,5-c]quinolin-2-ylidene)methanesulfonamide], the EC50 in series [1] (Table 1) stood at 6.28 nM. For the same compound, the half-life in series [2] (setting [3]) was above 30 min. In “Solubility pH 7.4” (Table 1), the solubility is below 1 µg/mL.
In the case of `Cn1c(=N)n(-c2cncnc2)c2c3cc(-c4ccc(Cl)c(OC(F)(F)F)c4)ccc3ncc21`, the EC50 in series [1] (Table 3) is 315 nM. Moreover, in series [2] (setting [4]), the half-life is above 30 min. The compound also showed a solubility in the series “Solubility pH 7.4” (Table 3) below 1 µg/mL.
For `CCCC/N=c1\n(C)c2cnc3ccc(-c4ccc(Cl)cc4)cc3c2n1-c1cc(C#N)ccc1C` [Compound 17, (E)-3-(2-(butylimino)-8-(4-chlorophenyl)-3-methyl-2,3-dihydro-1H-imidazo[4,5-c]quinolin-1-yl)-4-methylbenzonitrile], the EC50 in series [1] (Table 1) came to 542 nM. In addition, in series [2] (setting [3]), the half-life is above 30 min. This compound had a solubility in “Solubility pH 7.4” (Table 1) of 1.1 µg/mL (≈ 2.29 µM).
For `Cn1c(=N)n([C@H]2CC[C@H](N3CCNCC3)CC2)c2c3cc(-c4ccc(Cl)cc4)ccc3ncc21` [Compound 96, 8-(4-chlorophenyl)-3-methyl-1-((1r,4r)-4-(piperazin-1-yl)cyclohexyl)-1,3-dihydro-2H-imidazo[4,5-c]quinolin-2-imine], in that order: 2630 nM, above 30 min and above 47 µg/mL.
On to `Cn1c(=N)n(-c2cncc(C#N)c2)c2c3cc(-c4ccc(Cl)cc4)ccc3ncc21` [Compound 45, 5-(8-(4-chlorophenyl)-2-imino-3-methyl-2,3-dihydro-1H-imidazo[4,5-c]quinolin-1-yl)nicotinonitrile], for which the concentration for a half-maximal effect (EC50) in series [1] (Table 1) came out at 130 nM. Moreover, the half-life in series [2] (setting [3]) is above 30 min. In addition, the solubility in “Solubility pH 7.4” (Table 1) was 7.8 µg/mL (≈ 19 µM).
The like results for `Cn1c(=N)n(-c2cncc(C(N)=O)c2)c2c3cc(-c4ccc(Cl)cc4)ccc3ncc21` [Compound 46, 5-(8-(4-chlorophenyl)-2-imino-3-methyl-2,3-dihydro-1H-imidazo[4,5-c]quinolin-1-yl)nicotinamide] were, in that order, 1760 nM, above 30 min and 19.9 µg/mL (≈ 46.4 µM).
Regarding `Cn1c(=N)n(-c2ccc(N3CCNCC3)c(C(F)(F)F)c2)c2c3cc(-c4ccc(Cl)cc4)ccc3ncc21` [Compound 72, 8-(4-chlorophenyl)-3-methyl-1-(4-(piperazin-1-yl)-3-(trifluoromethyl)phenyl)-1,3-dihydro-2H-imidazo[4,5-c]quinolin-2-imine], the half-maximal effective concentration (EC50) in series [1] (Table 1) came to 258 nM. Besides, the half-life in series [2] (setting [3]) is above 30 min. Further, the solubility in “Solubility pH 7.4” (Table 1) was below 1 µg/mL.
Take `Cn1c(=N)n(-c2ccnc(N)n2)c2c3cc(-c4cccc(F)c4)ccc3ncc21`: in series [1] (Table 3), the EC50 amounted to 523 nM. Moreover, the half-life in series [2] (setting [4]) is above 30 min. The same compound came in with a solubility in “Solubility pH 7.4” (Table 3) of 20.9 µg/mL (≈ 54.2 µM).
`Cc1cc(N2CCC(O)CC2)c(C#N)cc1-n1c(=N)n(C)c2cnc3ccc(-c4ccc(Cl)cc4)cc3c21` [Compound 114, 5-(8-(4-chlorophenyl)-2-imino-3-methyl-2,3-dihydro-1H-imidazo[4,5-c]quinolin-1-yl)-2-(4-hydroxypiperidin-1-yl)-4-methylbenzonitrile]: in series [1] (Table 1), the EC50 amounted to 55.2 nM. The half-life in series [2] (setting [3]) was above 30 min. In “Solubility pH 7.4” (Table 1), this compound gave a solubility below 1 µg/mL.
The like results for `Cn1c(=N)n(-c2ccccc2F)c2c3cc(-c4ccc(Cl)cc4)ccc3ncc21` [Compound 80, 8-(4-chlorophenyl)-1-(2-fluorophenyl)-3-methyl-1,3-dihydro-2H-imidazo[4,5-c]quinolin-2-imine] were, in that order, 955 nM, above 30 min and 12.4 µg/mL (≈ 30.8 µM).
Turning to `Cc1ncncc1-n1c(=N)n(C)c2cnc3ccc(-c4ccc(N)nc4)cc3c21`, the EC50 in series [1] (Table 3) was 164 nM. Also, in series [2] (setting [4]), the half-life was above 30 min. Moreover, the solubility in “Solubility pH 7.4” (Table 3) is above 38 µg/mL.
On to `CCc1ccc(C#N)cc1-n1c(=N)n(C)c2cnc3ccc(-c4ccc(Cl)cc4)cc3c21` [Compound 7, 3-(8-(4-chlorophenyl)-2-imino-3-methyl-2,3-dihydro-1H-imidazo[4,5-c]quinolin-1-yl)-4-ethylbenzonitrile], for which the EC50 in series [1] (Table 1) turned out to be 360 nM. Also, in series [2] (setting [3]), the half-life was above 30 min. Moreover, the concentration in solution in “Solubility pH 7.4” (Table 1) (solubility) came to 3.4 µg/mL (≈ 7.76 µM).
For `Cn1c(=N)n(-c2cccc(S(C)(=O)=O)c2)c2c3cc(-c4ccc(Cl)cc4)ccc3ncc21` [Compound 75, 8-(4-chlorophenyl)-3-methyl-1-(3-(methylsulfonyl)phenyl)-1,3-dihydro-2H-imidazo[4,5-c]quinolin-2-imine], in that order: 1020 nM, above 30 min and 11.7 µg/mL (≈ 25.3 µM).

For orientation: EC50 means the midpoint of the concentration-response curve. What is called solubility is the concentration that dissolves in the medium under given conditions.
